Assay results from ChEMBL document CHEMBL5291721, “A preclinical secondary pharmacology resource illuminates target-adverse drug reaction associations of marketed drugs” (Nat Commun, 2023).

How the values were obtained:
[1] = molecular target: T1, Thromboxane A2 receptor (Homo sapiens, UniProt P21731); type: functional, cell-based
T1 sequence (P21731 whole entry): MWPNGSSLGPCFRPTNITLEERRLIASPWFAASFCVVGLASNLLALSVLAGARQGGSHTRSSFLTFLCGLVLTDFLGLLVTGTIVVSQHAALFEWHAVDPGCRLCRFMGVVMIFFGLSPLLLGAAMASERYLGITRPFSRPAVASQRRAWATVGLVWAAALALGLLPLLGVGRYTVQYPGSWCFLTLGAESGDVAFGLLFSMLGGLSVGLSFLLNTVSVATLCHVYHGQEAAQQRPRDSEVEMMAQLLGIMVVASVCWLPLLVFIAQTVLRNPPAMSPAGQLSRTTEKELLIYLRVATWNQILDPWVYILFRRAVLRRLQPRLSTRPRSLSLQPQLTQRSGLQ

[2] = molecular target: D(3) dopamine receptor (Homo sapiens, UniProt P35462)
Sequence of D(3) dopamine receptor (P35462 whole entry): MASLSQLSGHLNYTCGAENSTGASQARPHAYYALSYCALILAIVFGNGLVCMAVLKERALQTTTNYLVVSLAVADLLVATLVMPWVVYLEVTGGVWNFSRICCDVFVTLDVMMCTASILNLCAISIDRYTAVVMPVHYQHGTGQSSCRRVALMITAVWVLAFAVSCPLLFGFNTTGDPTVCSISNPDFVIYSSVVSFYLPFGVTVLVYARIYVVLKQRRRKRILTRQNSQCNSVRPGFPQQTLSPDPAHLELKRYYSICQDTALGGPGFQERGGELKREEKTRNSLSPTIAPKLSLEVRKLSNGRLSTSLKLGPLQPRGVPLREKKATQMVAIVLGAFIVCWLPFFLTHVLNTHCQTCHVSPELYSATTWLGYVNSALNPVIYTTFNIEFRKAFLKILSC

[3] = molecular target: T2, Amine oxidase [flavin-containing] A (Homo sapiens, UniProt P21397); type: functional
T2 sequence (P21397 whole entry): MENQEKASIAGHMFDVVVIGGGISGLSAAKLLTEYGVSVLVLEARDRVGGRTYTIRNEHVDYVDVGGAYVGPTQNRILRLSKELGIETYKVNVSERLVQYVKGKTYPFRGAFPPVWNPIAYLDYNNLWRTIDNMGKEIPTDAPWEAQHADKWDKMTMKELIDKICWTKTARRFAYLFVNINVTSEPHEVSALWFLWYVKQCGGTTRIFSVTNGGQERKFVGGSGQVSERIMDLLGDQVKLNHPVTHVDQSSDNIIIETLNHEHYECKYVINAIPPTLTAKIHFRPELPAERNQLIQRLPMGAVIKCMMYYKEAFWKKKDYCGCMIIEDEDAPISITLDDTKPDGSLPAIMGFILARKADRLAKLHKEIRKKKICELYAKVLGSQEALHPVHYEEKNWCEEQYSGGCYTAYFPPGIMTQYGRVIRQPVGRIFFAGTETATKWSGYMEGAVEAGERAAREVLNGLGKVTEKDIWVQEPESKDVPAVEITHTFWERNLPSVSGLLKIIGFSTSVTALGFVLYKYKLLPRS

[4] = molecular target: T3, Prostaglandin G/H synthase 1 (Homo sapiens, UniProt P23219); type: functional
[5] = molecular target: Mu-type opioid receptor (Homo sapiens, UniProt P35372)
Sequence of Mu-type opioid receptor (P35372 whole entry): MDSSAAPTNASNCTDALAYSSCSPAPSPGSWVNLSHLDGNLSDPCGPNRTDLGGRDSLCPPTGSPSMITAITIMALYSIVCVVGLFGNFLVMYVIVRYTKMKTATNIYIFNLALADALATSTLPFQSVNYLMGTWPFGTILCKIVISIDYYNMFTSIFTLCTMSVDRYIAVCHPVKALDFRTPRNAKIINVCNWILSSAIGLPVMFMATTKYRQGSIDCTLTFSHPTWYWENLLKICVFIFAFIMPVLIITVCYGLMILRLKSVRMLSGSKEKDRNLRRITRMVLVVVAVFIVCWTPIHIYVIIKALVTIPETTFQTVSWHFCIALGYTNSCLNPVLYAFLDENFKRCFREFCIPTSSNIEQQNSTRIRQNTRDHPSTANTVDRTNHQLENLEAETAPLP

[6] = molecular target: cGMP-inhibited 3',5'-cyclic phosphodiesterase 3A (Homo sapiens, UniProt Q14432); type: functional
Sequence of cGMP-inhibited 3',5'-cyclic phosphodiesterase 3A (Q14432 whole entry): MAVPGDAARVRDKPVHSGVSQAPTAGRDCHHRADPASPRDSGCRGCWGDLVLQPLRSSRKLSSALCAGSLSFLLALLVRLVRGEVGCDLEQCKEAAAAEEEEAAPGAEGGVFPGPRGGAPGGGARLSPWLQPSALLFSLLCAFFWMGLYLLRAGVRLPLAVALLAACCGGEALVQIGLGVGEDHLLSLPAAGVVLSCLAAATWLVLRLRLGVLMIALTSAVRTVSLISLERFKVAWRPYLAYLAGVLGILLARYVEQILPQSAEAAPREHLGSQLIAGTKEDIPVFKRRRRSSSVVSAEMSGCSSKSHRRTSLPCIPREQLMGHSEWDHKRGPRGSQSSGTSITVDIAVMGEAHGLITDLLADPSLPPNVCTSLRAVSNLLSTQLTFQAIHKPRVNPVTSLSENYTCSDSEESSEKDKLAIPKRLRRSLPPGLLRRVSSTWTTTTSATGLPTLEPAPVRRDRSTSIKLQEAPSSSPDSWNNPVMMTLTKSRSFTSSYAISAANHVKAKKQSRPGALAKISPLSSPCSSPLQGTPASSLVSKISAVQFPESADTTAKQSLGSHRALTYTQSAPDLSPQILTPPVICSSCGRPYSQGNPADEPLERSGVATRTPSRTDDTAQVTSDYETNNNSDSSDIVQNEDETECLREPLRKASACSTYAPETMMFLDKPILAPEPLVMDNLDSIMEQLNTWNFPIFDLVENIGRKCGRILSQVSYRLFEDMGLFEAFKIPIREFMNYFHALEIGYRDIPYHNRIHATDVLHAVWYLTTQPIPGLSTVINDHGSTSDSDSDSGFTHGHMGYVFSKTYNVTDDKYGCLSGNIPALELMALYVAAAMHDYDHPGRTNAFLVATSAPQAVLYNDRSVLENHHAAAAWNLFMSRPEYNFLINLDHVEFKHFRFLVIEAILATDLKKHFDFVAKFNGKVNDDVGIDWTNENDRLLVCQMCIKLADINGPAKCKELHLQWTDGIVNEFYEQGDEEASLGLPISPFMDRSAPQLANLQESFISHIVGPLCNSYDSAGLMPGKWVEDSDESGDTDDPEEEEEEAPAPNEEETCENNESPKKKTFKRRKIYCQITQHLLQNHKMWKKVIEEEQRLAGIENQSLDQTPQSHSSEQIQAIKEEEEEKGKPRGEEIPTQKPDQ

[7] = molecular target: T4, Alpha-2A adrenergic receptor (Homo sapiens, UniProt P08913)
T4 sequence (P08913 whole entry): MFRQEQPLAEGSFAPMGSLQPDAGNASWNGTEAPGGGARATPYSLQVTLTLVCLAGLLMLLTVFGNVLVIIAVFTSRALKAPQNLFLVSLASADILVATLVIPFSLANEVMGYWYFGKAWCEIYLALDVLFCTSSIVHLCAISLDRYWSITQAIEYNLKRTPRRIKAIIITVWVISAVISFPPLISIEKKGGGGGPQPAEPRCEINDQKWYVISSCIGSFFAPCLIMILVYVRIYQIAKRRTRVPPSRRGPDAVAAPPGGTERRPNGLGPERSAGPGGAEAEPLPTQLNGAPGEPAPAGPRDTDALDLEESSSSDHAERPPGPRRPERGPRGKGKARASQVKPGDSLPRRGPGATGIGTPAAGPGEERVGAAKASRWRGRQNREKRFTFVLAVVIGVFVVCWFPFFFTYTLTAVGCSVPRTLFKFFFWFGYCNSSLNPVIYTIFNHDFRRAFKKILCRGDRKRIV

[8] = molecular target: 5-hydroxytryptamine receptor 2B (Homo sapiens, UniProt P41595); type: functional, cell-based
Sequence of 5-hydroxytryptamine receptor 2B (P41595 whole entry): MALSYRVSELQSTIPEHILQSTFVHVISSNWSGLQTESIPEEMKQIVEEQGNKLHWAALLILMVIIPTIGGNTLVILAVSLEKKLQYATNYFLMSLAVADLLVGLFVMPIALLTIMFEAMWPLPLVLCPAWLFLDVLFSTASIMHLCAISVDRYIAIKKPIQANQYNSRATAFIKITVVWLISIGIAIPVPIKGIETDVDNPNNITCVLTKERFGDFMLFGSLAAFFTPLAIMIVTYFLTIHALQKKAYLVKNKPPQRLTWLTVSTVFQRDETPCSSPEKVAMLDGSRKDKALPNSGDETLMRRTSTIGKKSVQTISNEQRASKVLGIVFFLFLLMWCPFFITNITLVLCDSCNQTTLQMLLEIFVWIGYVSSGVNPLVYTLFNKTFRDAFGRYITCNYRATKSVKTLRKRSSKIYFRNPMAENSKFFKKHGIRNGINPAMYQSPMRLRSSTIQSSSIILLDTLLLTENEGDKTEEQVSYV

[9] = molecular target: T1, Thromboxane A2 receptor; type: functional, cell-based; remark: listed apart in the source
[10] = molecular target: Acetylcholinesterase (Homo sapiens, UniProt P22303); type: functional
Sequence of Acetylcholinesterase (P22303 whole entry): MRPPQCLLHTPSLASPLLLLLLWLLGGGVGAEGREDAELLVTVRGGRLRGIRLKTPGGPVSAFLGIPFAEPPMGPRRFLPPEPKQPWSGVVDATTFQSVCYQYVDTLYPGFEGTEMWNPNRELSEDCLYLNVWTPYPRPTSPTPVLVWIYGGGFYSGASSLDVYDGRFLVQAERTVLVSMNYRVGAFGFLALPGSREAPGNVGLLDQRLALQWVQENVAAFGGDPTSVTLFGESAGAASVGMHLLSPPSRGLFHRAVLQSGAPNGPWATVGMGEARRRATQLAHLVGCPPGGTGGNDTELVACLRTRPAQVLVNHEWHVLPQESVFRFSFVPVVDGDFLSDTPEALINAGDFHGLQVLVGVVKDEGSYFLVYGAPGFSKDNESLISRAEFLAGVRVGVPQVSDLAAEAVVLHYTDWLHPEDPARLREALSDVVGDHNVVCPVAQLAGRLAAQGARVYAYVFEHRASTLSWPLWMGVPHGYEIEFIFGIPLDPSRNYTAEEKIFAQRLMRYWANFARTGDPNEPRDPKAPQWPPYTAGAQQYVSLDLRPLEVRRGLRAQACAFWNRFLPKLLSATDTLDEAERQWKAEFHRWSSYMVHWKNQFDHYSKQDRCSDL

[11] = molecular target: 3',5'-cyclic-AMP phosphodiesterase 4A (Homo sapiens, UniProt P27815); type: functional
Sequence of 3',5'-cyclic-AMP phosphodiesterase 4A (P27815 whole entry): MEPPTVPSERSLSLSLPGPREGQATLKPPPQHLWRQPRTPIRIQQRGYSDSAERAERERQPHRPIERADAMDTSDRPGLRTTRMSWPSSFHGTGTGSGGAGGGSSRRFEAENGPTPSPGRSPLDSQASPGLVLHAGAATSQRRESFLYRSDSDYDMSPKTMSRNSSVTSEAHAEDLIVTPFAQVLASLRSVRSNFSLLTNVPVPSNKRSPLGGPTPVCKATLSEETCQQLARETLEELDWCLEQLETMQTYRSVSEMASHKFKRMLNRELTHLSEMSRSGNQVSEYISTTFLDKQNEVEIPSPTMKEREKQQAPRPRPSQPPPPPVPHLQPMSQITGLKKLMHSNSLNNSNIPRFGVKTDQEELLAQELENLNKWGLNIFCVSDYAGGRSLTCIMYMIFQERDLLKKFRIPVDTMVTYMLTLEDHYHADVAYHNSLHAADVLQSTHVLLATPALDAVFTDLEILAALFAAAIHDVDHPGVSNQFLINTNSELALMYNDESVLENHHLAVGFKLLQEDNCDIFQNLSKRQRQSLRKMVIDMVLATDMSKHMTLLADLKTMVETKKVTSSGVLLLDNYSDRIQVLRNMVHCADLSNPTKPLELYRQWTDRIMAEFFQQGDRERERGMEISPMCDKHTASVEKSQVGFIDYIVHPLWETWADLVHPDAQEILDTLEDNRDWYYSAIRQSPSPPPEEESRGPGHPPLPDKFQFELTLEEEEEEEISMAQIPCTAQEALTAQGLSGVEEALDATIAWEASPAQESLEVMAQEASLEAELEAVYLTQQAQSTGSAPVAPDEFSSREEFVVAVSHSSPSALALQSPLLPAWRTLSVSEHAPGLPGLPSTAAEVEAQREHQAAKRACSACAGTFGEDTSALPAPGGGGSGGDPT

[12] = molecular target: Prothrombin (Homo sapiens, UniProt P00734); type: functional
[13] = molecular target: D(1A) dopamine receptor (Homo sapiens, UniProt P21728)
Sequence of D(1A) dopamine receptor (P21728 whole entry): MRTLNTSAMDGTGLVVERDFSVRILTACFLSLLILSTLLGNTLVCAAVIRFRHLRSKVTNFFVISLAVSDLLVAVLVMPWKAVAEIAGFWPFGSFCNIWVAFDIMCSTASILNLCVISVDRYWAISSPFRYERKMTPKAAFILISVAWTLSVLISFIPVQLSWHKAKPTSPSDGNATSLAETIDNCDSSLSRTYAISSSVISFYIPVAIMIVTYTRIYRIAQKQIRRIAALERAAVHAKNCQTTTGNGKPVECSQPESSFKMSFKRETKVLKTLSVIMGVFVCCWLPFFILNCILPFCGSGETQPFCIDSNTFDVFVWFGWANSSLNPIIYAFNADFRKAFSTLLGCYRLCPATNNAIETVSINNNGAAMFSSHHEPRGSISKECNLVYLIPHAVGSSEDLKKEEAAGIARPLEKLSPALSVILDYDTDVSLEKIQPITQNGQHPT

[14] = molecular target: Sodium-dependent noradrenaline transporter (Homo sapiens, UniProt P23975)
[15] = molecular target: Sodium-dependent dopamine transporter (Homo sapiens, UniProt Q01959)
Sequence of Sodium-dependent dopamine transporter (Q01959 whole entry): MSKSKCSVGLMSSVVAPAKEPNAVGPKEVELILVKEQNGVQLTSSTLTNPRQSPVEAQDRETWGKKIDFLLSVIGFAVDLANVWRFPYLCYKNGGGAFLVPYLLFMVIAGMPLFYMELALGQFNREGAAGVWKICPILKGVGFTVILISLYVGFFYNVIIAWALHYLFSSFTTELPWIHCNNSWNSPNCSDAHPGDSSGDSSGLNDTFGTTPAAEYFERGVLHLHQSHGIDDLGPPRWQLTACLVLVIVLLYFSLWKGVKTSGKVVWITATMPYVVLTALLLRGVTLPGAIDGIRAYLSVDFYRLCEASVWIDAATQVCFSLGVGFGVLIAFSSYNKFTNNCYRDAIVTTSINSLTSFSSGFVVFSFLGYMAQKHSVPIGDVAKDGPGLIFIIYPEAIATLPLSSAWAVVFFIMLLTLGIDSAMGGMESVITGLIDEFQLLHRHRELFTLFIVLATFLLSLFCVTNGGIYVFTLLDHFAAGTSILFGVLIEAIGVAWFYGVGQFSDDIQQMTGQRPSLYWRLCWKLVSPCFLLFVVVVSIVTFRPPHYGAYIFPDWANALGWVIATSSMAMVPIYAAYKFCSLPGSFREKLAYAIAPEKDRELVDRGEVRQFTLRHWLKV

[16] = molecular target: T3, Prostaglandin G/H synthase 1; type: functional; remark: listed apart in the source
[17] = molecular target: T5, 5-hydroxytryptamine receptor 1A (Homo sapiens, UniProt P08908)
T5 sequence (P08908 whole entry): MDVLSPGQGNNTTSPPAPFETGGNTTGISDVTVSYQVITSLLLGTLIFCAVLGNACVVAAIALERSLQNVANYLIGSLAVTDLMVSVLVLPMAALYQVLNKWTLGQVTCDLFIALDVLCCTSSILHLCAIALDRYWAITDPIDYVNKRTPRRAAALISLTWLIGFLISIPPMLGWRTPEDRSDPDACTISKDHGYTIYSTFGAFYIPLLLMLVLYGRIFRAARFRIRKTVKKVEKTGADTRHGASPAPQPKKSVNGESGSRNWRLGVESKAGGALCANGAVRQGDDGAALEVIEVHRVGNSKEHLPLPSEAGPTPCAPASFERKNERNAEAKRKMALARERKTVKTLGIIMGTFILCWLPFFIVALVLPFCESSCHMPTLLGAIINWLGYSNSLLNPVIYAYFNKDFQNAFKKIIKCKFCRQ
Note: assay procedure not described here.

Structure (SMILES)	AC50 [1] [µM]	AC50 [2] [µM]	AC50 [3] [µM]	AC50 [4] [µM]	AC50 [5] [µM]	AC50 [6] [µM]	AC50 [7] [µM]	AC50 [8] [µM]	AC50 [9] [µM]	AC50 [10] [µM]	AC50 [11] [µM]	AC50 [12] [µM]	AC50 [13] [µM]	AC50 [14] [µM]	AC50 [15] [µM]	AC50 [16] [µM]	AC50 [17] [µM]
CN1CCC[C@@H]1Cc1c[nH]c2ccc(CCS(=O)(=O)c3ccccc3)cc12	> 30	> 30	> 30	> 30	8	> 30	7.51	> 10	> 30	> 30	> 30	> 30	27.7	17.8	26.6	> 30	0.0214
COc1nccnc1NS(=O)(=O)c1ccc(N)cc1	> 30	> 30	> 30	> 30	> 30	> 30	> 30	> 30	> 30	> 30	> 30	> 30	> 30	> 30	> 30	> 30	> 30
O=C(Nc1cccc2c(=O)cc(-c3nnn[nH]3)oc12)c1ccc(OCCCCc2ccccc2)cc1	> 30	4.45	> 30	> 30	4.64	> 30	> 30	> 30	> 30	> 30	8.21	> 30	10.1	7.06	8.24	26.7	4.1
NC(=O)c1nc(F)c[nH]c1=O	> 30	> 30	> 30	> 30	> 30	> 30	> 30	> 30	> 30	> 30	> 30	> 10	> 30	> 30	> 30	> 30	> 30
CN(C)CCCN1C(=O)c2cc([N+](=O)[O-])ccc2Oc2ccccc21	> 30	15	> 30	> 30	> 30	> 30	28.4	> 30	> 30	> 30	> 30	> 30	26	> 30	> 30	29.6	4.17
O=S(=O)(O)CCS [2-MERCAPTOETHANESULFONIC ACID]	> 30	> 30	> 30	0.78	> 30	> 30	> 30	> 30	> 30	> 10	9	> 30	> 30	> 30	> 30	0.486	> 30
CN(C)CCN(Cc1ccc(Cl)cc1)c1ccccn1 [CHLOROPYRAMINE]	> 30	1.35	> 30	> 30	5.22	> 30	12.2	> 30	> 30	> 30	> 30	> 30	2.23	19.4	0.21	> 30	> 30
O=C(O)c1cc(=O)c2ccccc2o1 [CHROMOCARB]	> 30	> 30	> 30	> 30	> 30	> 30	> 30	> 30	> 30	> 30	> 30	> 30	> 30	> 30	> 30	23.9	> 30
CN(CC(=O)O)C(=N)N [CREATINE]	> 30	> 30	> 30	> 30	> 30	> 30	> 30	> 30	> 30	> 30	> 30	> 30	> 30	> 30	> 30	> 30	> 30
N[C@@H](CSSC[C@H](N)C(=O)O)C(=O)O [CYSTINE]	> 30	> 30	> 30	> 30	> 30	> 30	> 30	> 30	> 30	> 30	> 30	> 30	> 30	> 30	> 30	> 30	> 30
C[C@]12CC[C@@H]3c4ccc(O)cc4CC[C@H]3[C@@H]1CC[C@@H]2OC(=O)CCC1CCCC1 [ESTRADIOL CYPIONATE]	> 30	> 30	> 30	> 30	> 30	12.5	> 30	> 30	> 30	> 30	17.6	> 30	> 30	> 30	> 30	4.37	> 30
C[C@]12CCC(=O)C=C1CC[C@@H]1[C@@H]2[C@@H](O)C[C@@]2(C)[C@H]1CC[C@]2(O)C(=O)COC(=O)CCC(=O)O [HYDROCORTISONE HEMISUCCINATE ANHYDROUS]	> 30		> 30	> 30	> 30	> 30	> 30	> 30	> 30	> 30	> 30	> 30	> 30	> 30	> 30	> 30	> 30
CNC[C@H](O)c1cccc(O)c1 [PHENYLEPHRINE]	> 30	4.68	> 30	> 30	> 30	> 30		> 30	> 30	> 30	> 30	> 30	18.1	> 30	29.4	> 30	1.31
